Values after ≈ are worked out from the molar mass of the structure shown.

In ChEMBL document CHEMBL1127169, “Syntheses of new 3-oxa-methano-PGI1 derivatives and their biological properties” (Bioorg Med Chem Lett, 1993) one finds Relative activity and IC50 data, which are given here for six compounds.

The species named for assay [1] is Oryctolagus cuniculus. Briefly: The compound was tested for inhibition of rabbit platelet aggregation induced by ADP, activity compared with PGE1 as standard was found to be <1/400. In kind it is functional.
The species entered for a further assay is Homo sapiens. Description: The compound was tested for inhibition of human platelet aggregation induced by ADP. In kind it is functional.
For the next assay, the species on record is Cavia porcellus. Description: The compound was tested for inhibition of guinea pig platelet aggregation induced by ADP. In kind it is functional.
Assay [2] is filed under the species Oryctolagus cuniculus. Description: The compound was tested for inhibition of rabbit platelet aggregation induced by ADP; activity compared with PGE1 as standard was found to be 1/1.2. It is filed as functional.
Assay [3] is filed under the species Oryctolagus cuniculus. Briefly: The compound was tested for inhibition of rabbit platelet aggregation induced by collagen. It is filed as functional.
Another assay is filed under the species Canis familiaris. Description: The compound was tested for inhibition of dog platelet aggregation induced by ADP. It is filed as functional. Particulars: Canis lupus familiaris.
Assay [4] is filed under the species Oryctolagus cuniculus. Description: The compound was tested for inhibition of rabbit platelet aggregation induced by arachidonic acid. It is filed as functional.
The species named for assay [5] is Oryctolagus cuniculus. Description: The compound was tested for inhibition of rabbit platelet aggregation induced by ADP. It is filed as functional, organism-based.
A further assay is filed under the species Rattus norvegicus. Description: The compound was tested for inhibition of rat platelet aggregation induced by ADP. In kind it is functional.
Assay [6] is filed under the species Oryctolagus cuniculus. Description: The compound was tested for inhibition of rabbit platelet aggregation induced by ADP, activity compared with PGE1 as standard was found to be 1/80. It is filed as functional.
The species entered for assay [7] is Oryctolagus cuniculus. Briefly: The compound was tested for inhibition of rabbit platelet aggregation induced by ADP, activity compared with PGE1 as standard was found to be 1/3.6. In kind it is functional.
For assay [8], the species on record is Oryctolagus cuniculus. Briefly: The compound was tested for inhibition of rabbit platelet aggregation induced by ADP, activity compared with PGE1 as standard. It is filed as functional.

Regarding `CCCC[C@H](C)C[C@H](O)/C=C/[C@@H]1[C@H]2C[C@H](CCOCC(=O)O)C[C@H]2C[C@@H]1O`, the Relative activity in the assay filed under Oryctolagus cuniculus [1] is under 0.0025.

A word on the IC50: it is the point on the concentration scale where inhibition reaches its midpoint. Lower therefore signals higher potency. As for `CCCC[C@H](C)C[C@H](O)/C=C/[C@@H]1[C@H]2C[C@H](CCOCC(=O)O)C[C@H]2C[C@H]1O`, the IC50 is 0.0125 µg/mL (≈ 0.0327 µM) in the assay filed under Homo sapiens; 0.0031 µg/mL (≈ 0.0081 µM) in the assay filed under Cavia porcellus; 0.0183 µg/mL (≈ 0.0478 µM) in the assay filed under Oryctolagus cuniculus [3]; 0.0043 µg/mL (≈ 0.0112 µM) in the assay listed under Canis familiaris; 0.0476 µg/mL (≈ 0.124 µM) in the assay filed under Oryctolagus cuniculus [4]; 0.0241 µg/mL (≈ 0.063 µM) in the assay listed under Oryctolagus cuniculus [5]. Also, inhibition in the assay filed under Rattus norvegicus was half-maximal at 0.0098 µg/mL (≈ 0.0256 µM) (IC50). In the assay listed under Oryctolagus cuniculus [2], this compound gave a Relative activity of 0.833.

In the assay listed under Oryctolagus cuniculus [1], `CCCC[C@H](C)C[C@@H](O)/C=C/[C@@H]1[C@H]2C[C@H](CCOCC(=O)O)C[C@H]2C[C@H]1O` gave a Relative activity of under 0.0025.

In the assay filed under Oryctolagus cuniculus [6], `CCCCC[C@H](O)/C=C/[C@@H]1[C@H]2C[C@H](CCCCC(=O)O)C[C@H]2C[C@H]1O` returned a Relative activity of 0.0125.

On to `CCCC[C@@H](C)C[C@H](O)/C=C/[C@@H]1[C@H]2C[C@H](CCOCC(=O)O)C[C@H]2C[C@H]1O`, for which, in the assay filed under Oryctolagus cuniculus [7], the Relative activity worked out at 0.278.

For the compound `CCCCC[C@H](O)/C=C/[C@H]1[C@H](O)CC(=O)[C@@H]1CCCCCCC(=O)O` [ALPROSTADIL], the IC50 is 0.0136 µg/mL (≈ 0.0384 µM) in the assay listed under Homo sapiens; 0.0025 µg/mL (≈ 0.00705 µM) in the assay filed under Cavia porcellus; 0.0132 µg/mL (≈ 0.0372 µM) in the assay filed under Oryctolagus cuniculus [3]; 0.0038 µg/mL (≈ 0.0107 µM) in the assay listed under Canis familiaris; 0.0359 µg/mL (≈ 0.101 µM) in the assay filed under Oryctolagus cuniculus [4]; 0.0207 µg/mL (≈ 0.0584 µM) in the assay filed under Oryctolagus cuniculus [5]. Moreover, inhibition in the assay filed under Rattus norvegicus was half-maximal at 0.0344 µg/mL (≈ 0.097 µM) (IC50). The Relative activity in the assay listed under Oryctolagus cuniculus [8] amounted to 1.
